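Method: 48-hour compound exposure of cells in 96-well plates, five concentrations, linear interpolation of endpoints. Abbreviation: GI50, concentration required for 50% inhibition of growth.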 The source made the active and inactive calls. No stated cut-off is given here; in the data, active = GI50 up to about 1.1 µM and inactive = higher.
What was measured:
Assay in all cases: DTP human tumour cell line panel, 48 h
K562 = test system: K562
SK-MEL-2 = test system: SK-MEL-2
CAKI-1 = test system: CAKI-1
786-0 = test system: 786-0
SK-MEL-5 = test system: SK-MEL-5
NCI-H226 = test system: NCI-H226
SF-539 = test system: SF-539
MDA-N = test system: MDA-N
SK-OV-3 = test system: SK-OV-3
OVCAR-4 = test system: OVCAR-4
RPMI-8226 = test system: RPMI-8226
CCRF-CEM = test system: CCRF-CEM
MDA-MB-435 = test system: MDA-MB-435
HOP-62 = test system: HOP-62
A498 = test system: A498
MOLT-4 = test system: MOLT-4
SNB-19 = test system: SNB-19
U-251 = test system: U-251
HCT-116 = test system: HCT-116
RXF 393 = test system: RXF 393

| SMILES | GI50 (K562) | GI50 (SK-MEL-2) | GI50 (CAKI-1) | GI50 (786-0) | GI50 (SK-MEL-5) | GI50 (NCI-H226) | GI50 (SF-539) | GI50 (MDA-N) | GI50 (SK-OV-3) | GI50 (OVCAR-4) | GI50 (RPMI-8226) | GI50 (CCRF-CEM) | GI50 (MDA-MB-435) | GI50 (HOP-62) | GI50 (A498) | GI50 (MOLT-4) | GI50 (SNB-19) | GI50 (U-251) | GI50 (HCT-116) | GI50 (RXF 393) |
| --- | --- | --- | --- | --- | --- | --- | --- | --- | --- | --- | --- | --- | --- | --- | --- | --- | --- | --- | --- | --- |
| CC(C)CCC1(O)O[C@H]2C[C@H]3[C@@H]4CCC5CC(=O)C=C[C@]5(C)[C@H]4CC[C@]3(C)[C@H]2[C@@H]1C (some centres not stated) | 5.07 µM (inactive) | 15.2 µM (inactive) | 14.5 µM (inactive) | 12.3 µM (inactive) | 13.7 µM (inactive) | 0.612 µM (active) | 17.6 µM (inactive) | 13.2 µM (inactive) | 18.8 µM (inactive) | 11.9 µM (inactive) | 4.88 µM (inactive) | 3.18 µM (inactive) | 11.6 µM (inactive) | 15 µM (inactive) | 14.6 µM (inactive) | 2.56 µM (inactive) | 17.5 µM (inactive) | 10.7 µM (inactive) | 6.79 µM (inactive) | 11.8 µM (inactive) |
| O=c1c(-c2ccccc2)c(SCCN2CCCC2)n(-c2ccccc2)c(=S)n1-c1ccccc1 | > 100 µM (inactive) | > 100 µM (inactive) | > 100 µM (inactive) | > 100 µM (inactive) | – | 83.2 µM (inactive) | > 100 µM (inactive) | > 100 µM (inactive) | > 100 µM (inactive) | > 100 µM (inactive) | > 100 µM (inactive) | > 100 µM (inactive) | > 100 µM (inactive) | > 100 µM (inactive) | > 100 µM (inactive) | > 100 µM (inactive) | > 100 µM (inactive) | > 100 µM (inactive) | > 100 µM (inactive) | > 100 µM (inactive) |
| O=c1c2c([N+](=O)[O-])cccc2nc2[nH]c3ccccc3n12 | > 75 µM (inactive) | 14.4 µM (inactive) | 14.6 µM (inactive) | 29.1 µM (inactive) | 35 µM (inactive) | 22.3 µM (inactive) | 13.3 µM (inactive) | > 75 µM (inactive) | 13.3 µM (inactive) | 11.6 µM (inactive) | 64.1 µM (inactive) | > 75 µM (inactive) | > 75 µM (inactive) | 70.8 µM (inactive) | 26.6 µM (inactive) | > 75 µM (inactive) | 30.9 µM (inactive) | 20.2 µM (inactive) | 34.1 µM (inactive) | 13.8 µM (inactive) |
| CCOc1ccccc1N1CSc2nnc(-c3ccccc3)n2C1 | > 100 µM (inactive) | > 100 µM (inactive) | > 100 µM (inactive) | > 100 µM (inactive) | > 100 µM (inactive) | > 100 µM (inactive) | > 100 µM (inactive) | > 100 µM (inactive) | > 100 µM (inactive) | > 100 µM (inactive) | 33.8 µM (inactive) | 20 µM (inactive) | > 100 µM (inactive) | > 100 µM (inactive) | > 100 µM (inactive) | > 100 µM (inactive) | – | > 100 µM (inactive) | 53.8 µM (inactive) | > 100 µM (inactive) |
| CC(=O)Nn1c(=S)[nH]c2ccccc21 | > 100 µM (inactive) | > 100 µM (inactive) | > 100 µM (inactive) | > 100 µM (inactive) | > 100 µM (inactive) | > 100 µM (inactive) | – | > 100 µM (inactive) | > 100 µM (inactive) | > 100 µM (inactive) | > 100 µM (inactive) | > 100 µM (inactive) | > 100 µM (inactive) | > 100 µM (inactive) | > 100 µM (inactive) | > 100 µM (inactive) | > 100 µM (inactive) | > 100 µM (inactive) | > 100 µM (inactive) | > 100 µM (inactive) |
